Common to all, as to assay type: cell-based
The target in assay [1] is T1, Potassium channel subfamily K member 2 (Homo sapiens) (UniProt O95069).
T1 sequence (whole entry): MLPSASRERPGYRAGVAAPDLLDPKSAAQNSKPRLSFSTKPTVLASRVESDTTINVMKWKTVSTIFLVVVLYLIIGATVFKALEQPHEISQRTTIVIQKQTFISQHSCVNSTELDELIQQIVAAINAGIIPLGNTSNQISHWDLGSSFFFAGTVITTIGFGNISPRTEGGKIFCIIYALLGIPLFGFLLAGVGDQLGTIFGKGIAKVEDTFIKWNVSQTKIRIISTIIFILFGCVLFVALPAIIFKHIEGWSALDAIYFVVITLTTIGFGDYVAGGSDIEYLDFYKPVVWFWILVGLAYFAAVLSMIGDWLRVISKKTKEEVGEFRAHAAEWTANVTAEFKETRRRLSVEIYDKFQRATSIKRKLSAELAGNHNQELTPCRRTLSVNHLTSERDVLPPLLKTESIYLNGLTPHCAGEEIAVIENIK
The assay can be described thus: Inhibition of human TREK1 R207A mutant at intermediate transition state expressed in CHO cells by whole-cell patch-clamp electrophysiological method.

Assay [2] concerns the target T1, Potassium channel subfamily K member 2 (Homo sapiens). The assay can be described thus: Inhibition of human TREK1 D294A mutant at intermediate transition state expressed in CHO cells by whole-cell patch-clamp electrophysiological method. Background: The patch-clamp technique gives a direct electrical read-out from membranes.
For assay [3] the target is unchanged. The assay can be described thus: Inhibition of human TREK1 S290A mutant at intermediate transition state expressed in CHO cells by whole-cell patch-clamp electrophysiological method.
For assay [4] the target is unchanged. The assay can be described thus: (§1) Inhibition of human TREK1 at intermediate transition state expressed in CHO cells by whole-cell patch-clamp electrophysiological method.
For assay [5] the target is unchanged. Kind of assay: Inhibition of human TREK1 in open state expressed in CHO cells in presence of 10 uM TREK1 activator arachidonic acid by whole-cell patch-clamp electrophysiological method.
In assay [6] the target is T2, Potassium channel subfamily K member 4 (Homo sapiens) (UniProt Q9NYG8).
T2 sequence (whole entry): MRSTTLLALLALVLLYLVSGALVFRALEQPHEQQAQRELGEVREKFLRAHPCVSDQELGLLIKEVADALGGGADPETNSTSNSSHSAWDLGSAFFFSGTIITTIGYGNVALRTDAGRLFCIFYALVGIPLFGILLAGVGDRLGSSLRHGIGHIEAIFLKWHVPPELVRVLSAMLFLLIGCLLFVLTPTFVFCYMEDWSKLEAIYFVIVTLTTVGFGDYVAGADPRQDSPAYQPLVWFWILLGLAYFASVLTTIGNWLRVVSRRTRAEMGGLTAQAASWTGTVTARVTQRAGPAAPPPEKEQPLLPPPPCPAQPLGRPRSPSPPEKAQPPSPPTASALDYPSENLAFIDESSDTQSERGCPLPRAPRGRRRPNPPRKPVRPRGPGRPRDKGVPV
The assay can be described thus: Inhibition of human TRAAK at intermediate transition state expressed in CHO cells by whole-cell patch-clamp electrophysiological method.

Assay [7] concerns the target T3, Potassium channel subfamily K member 10 (Homo sapiens) (UniProt P57789).
T3 sequence (whole entry): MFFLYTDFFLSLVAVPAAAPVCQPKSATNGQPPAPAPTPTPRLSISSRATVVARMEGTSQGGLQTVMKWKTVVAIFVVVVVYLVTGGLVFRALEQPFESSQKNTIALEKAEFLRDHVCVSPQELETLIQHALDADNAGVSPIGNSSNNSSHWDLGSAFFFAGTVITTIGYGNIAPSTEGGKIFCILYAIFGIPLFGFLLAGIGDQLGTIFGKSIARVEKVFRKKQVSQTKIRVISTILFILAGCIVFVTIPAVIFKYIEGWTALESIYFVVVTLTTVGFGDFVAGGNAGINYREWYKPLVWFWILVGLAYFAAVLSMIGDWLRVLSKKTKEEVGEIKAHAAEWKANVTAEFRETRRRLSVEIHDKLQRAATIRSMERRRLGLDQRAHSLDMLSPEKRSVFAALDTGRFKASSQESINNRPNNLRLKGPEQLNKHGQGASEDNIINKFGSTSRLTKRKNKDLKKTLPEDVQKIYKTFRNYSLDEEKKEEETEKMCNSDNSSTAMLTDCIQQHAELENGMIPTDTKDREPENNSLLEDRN
The assay can be described thus: Inhibition of human TREK2 at intermediate transition state expressed in CHO cells by whole-cell patch-clamp electrophysiological method.

The target of assay [8] is T1, Potassium channel subfamily K member 2 (Homo sapiens). The assay can be described thus: Inhibition of human TREK1 V288A mutant at intermediate transition state expressed in CHO cells by whole-cell patch-clamp electrophysiological method.
Assay [9] shares this target. Kind of assay: Inhibition of human TREK1 W295A mutant at intermediate transition state expressed in CHO cells by whole-cell patch-clamp electrophysiological method.
The target is the same in assay [10]. The assay can be described thus: Inhibition of human TREK1 M291A mutant at intermediate transition state expressed in CHO cells by whole-cell patch-clamp electrophysiological method.
The target is the same in assay [11]. The assay can be described thus: Inhibition of human TREK1 T211A mutant at intermediate transition state expressed in CHO cells by whole-cell patch-clamp electrophysiological method.
For assay [12] the target is unchanged. Kind of assay: Inhibition of human TREK1 at intermediate transition state expressed in CHO cells assessed as decrease in probability of TREK1 channel being in open state by single-channel recordings based by inside-out patch method.
Assay [13] shares this target. The assay can be described thus: Effect on channel conductance of human TREK1 expressed in CHO cells by single-channel recordings based by inside-out patch method.
The target in assay [14] is T4, Potassium channel subfamily K member 2 (Homo sapiens, UniProt O95069).
T4 sequence (O95069 whole entry): T1 sequence (whole entry)
The description is as §1.

Molecules are shown by their SMILES. Calls of active or inactive are those of the source. The calls are words filed in the database; no cut-off is given here.

Take `CNCCC(Oc1ccc(C(F)(F)F)cc1)c1ccccc1` (stereo unspecified): the inhibition result in [1] is “inactive”.
In the case of `COc1ccc2nc(SCC(=O)NNC(=O)c3ccc(Cl)cc3)ccc2c1`, the inhibition result in [2] and in assay [4] was “Active” throughout. In assay [3], the inhibition result was “inactive”.
For `O=C(CSc1ccc2cc(F)ccc2n1)NNC(=O)c1ccc(Cl)cc1`, the inhibition entry in assay [2] was “inactive”. The inhibition entry in assay [3] and in assay [4] was “Active” throughout.
Regarding `O=C(CSc1ccc2ccccc2n1)NNC(=O)c1ccc(Cl)cc1`, the inhibition result in assay [5], in assay [6], in assay [2], in [9], in assay [10] and in [11] was “inactive” each time. Also, the inhibition entry in [1], in [7], in assay [3], in assay [8] and in [12] was “Active” throughout. In addition, in [13], the result was inactive. Also, the inhibition result in assay [4] was “Dose-dependent effect”. In addition, the half-inhibitory concentration (IC50) (in general, the point on the concentration scale where inhibition reaches its midpoint) in assay [14] is 2990 nM.
